Patent US4748161A, “Triterpenyl esters of organic acids and hypolipidemic agents composed of them” (Amano Pharmaceutical Co., Ltd., priority 1984, dated 1988)
Like-named read-outs stand apart in the source and are kept apart here.

How the values were obtained:
[1] = test system: serum lipids and serum lipid hydroperoxide; test: Pharmacological test method B for anti-hyperlipidemic activity (serum lipids, 4 weeks feeding); assay type: in vivo, male Wistar strain rats; set-up: AI Diff.: unit not given here; conditions: for AI [(TC - HDL-C)/(HDL-C)] / HDL-C in serum / LPO in serum / PL in serum / TC in serum / TG in serum: 1% in hyperlipidemic diet, 4 weeks; for change in vivo at 1 % in diet: Rattus norvegicus, po, 672 h; for change in vivo at 1 % in diet / AI Diff. / HDL-C Diff. / LPO Diff. / PL Diff. / TC % of diff. / TC Diff. / TG Diff.: versus control group; for HDL-C rise compared with normal diet group: versus normal diet group
Experimental: Pharmacological test method B for anti-hyperlipidemic acitivity (the term "method B" was used in the present specification)
(§1) Male Wistar strain rats (100±1 g, each 8 rats were formed into a group except that the control group fed with a hyperlipidemic diet was formed of 16 rats) were used as test animals. A powdery diet (CE-2, supplied by Clea Japan, Inc.) was used as ordinary diet. The hyperlipidemic diet was prepared by fortifying the ordinary diet with cholesterol (1%) and cholic acid (0.5%). Each test compound (1%) for administration was admixed with the hyperlipidemic diet. Each two rats were kept in a cage and given the prescribed diet and water ad libitum. Thus the rats were fed for 4 weeks at a constant temperature of 23±1° C. and a constant R.H. of 55±5%. Finally, the rats were fasted from food except water for 16 hours (from 4 p.m. of the 28th test day to 8 a.m. of the 29th test day), and under anesthesia with pentbarbital sodium (tradename: Nembutal), blood was taken from each rat through the descending abdominal arota. Then, TC, HDL-C, TG, PL, and LPO in the serum were measured in the following manner.
A TC kit-K (supplied by Nippon Shoji Kaisha, Ltd.) was used. The principle of this determination is as follows: The ester of cholesterol in the serum is hydrolyzed with cholesterol-ester hydrolase into free cholesterol and fatty acids. All the free cholesterol is oxidized with cholesterol oxydase to form Δ^4 -cholestenone and hydrogen peroxide. Phenol and 4-aminoantipyrin are oxidatively condensed together by the formed hydrogen peroxide and peroxydase. The produced red quinone coloring matter is measured by colorimetry for absorbance at 500 nm using a spectrophotometer, thereby determining the TC:
The color-developing liquid (3.0 ml) is well mixed with the sample serum (0.02 ml). The mixture once heated at 37° C. for 15 minutes, is measured for absorbance at 500 nm with a spectrophotometer. The found absorbance is denoted by EA. On the other hand, the color-developing liquid (3.0 ml) is well mixed with the standard solution. The mixture is treated and measured for absorbance at 500 nm in the same manner as the above. This found absorbance is denoted by ES. Both EA and ES are determined with reference to the value of the blank test conducted using the color-developing liquid (3.0 ml) alone. [formula]
An HDL-C kit-N (supplied by Nippon Shoji Kaisha, Ltd.) was used. […] (VLDL) and lo density lipoprotein (LDL) in the serum is precipitated by the action of heparin. The precipitate is separated by centrifugation. High density lipoprotein (HDL) is dissolved in the separated supernatant. Esters of cholesterol in this fraction is hydrolyzed with cholesterol-ester hydrolase into free cholesterol and fatty acids. All the free cholesterol is oxidized with cholesterol oxydase to form Δ^4 -cholestenone and hydrogen peroxide. Phenol and 4-aminoantipyrine are oxidatively condensed together by the formed hydrogen peroxide and peroxydase. The produced red quinone coloring matter is measured by colorimetry for absorbance at 500 nm using a spectrophotometer, thereby determining the HDL-C.
A PL kit-K (supplied by Nippon Shoji Kaisha, Ltd.) was used for the determination. Lecithin, sphingomyelin, and lysolecithin are decomposed by phospholipase D into choline and phosphatidic acid, N-acylsphingosyl phosphate, or lysophosphatidic acid, respectively. The resulting choline is quantitatively decomposed by choline oxydase into hydrogen peroxide and betaine. With this hydrogen peroxide, and aid of peroxydase, phenol and 4-aminoantipyrin are condensed into red quinone pigment, then the absorbance at 500 nm of which is measured with a spectrophotometer, thereby determining the PL. […]

[2] = Body weight of rats in method B; set-up: species or system male Wistar strain rats; conditions: rat, in vivo
Experimental: as §1

Compound | AI [(TC - HDL-C)/(HDL-C)] [1] | HDL-C in serum [1] | LPO in serum [1] | PL in serum [1] | TC in serum [1] | TG in serum [1] | change in vivo at 1 % in diet ([1]; read-out: AI % of diff.) | change in vivo at 1 % in diet ([1]; read-out: HDL-C % of diff.) | change in vivo at 1 % in diet ([1]; read-out: LPO % of diff.) | change in vivo at 1 % in diet ([1]; read-out: PL % of diff.) | change in vivo at 1 % in diet ([1]; read-out: TG % of diff.) | AI Diff. [1] | HDL-C Diff. [1] | LPO Diff. [1] | Body weight during feed period, 1st day [2] | Body weight during feed period, 8th day [2] | Body weight during feed period, 15th day [2] | Body weight during feed period, 22nd day [2] | Body weight during feed period, 28th day [2] | Body weight just before blood sampling, 29th day [2] | also measured
CCC(=Cc1ccc(O)cc1)C(=O)OC1CCC23CC24CCC2(C)C(C(C)CCC=C(C)C)CCC2(C)C4CCC3C1(C)C (stereo not drawn) [Example 130, cycloartenyl ester of 4-hydroxy-α-ethylcinnamic acid] | 8.586 | 21.0 mg/dL | 2.07 nmol/mL | 107.2 mg/dL | 201.3 mg/dL | 53.4 mg/dL | -60.5% | 55.6% | -26.6% | -23.5% | -5.5% | -13.17 | +7.5 mg/dl | -0.75 nmol/mL | 105 ± 3.3 g | 144 ± 9.3 g | 194 ± 18.1 g | 245 ± 15.7 g | 271 ± 18.0 g | 258 ± 20.2 g | PL Diff. [1]: -32.9 mg/dL; TC % of diff. [1]: -34.5%; TC Diff. [1]: -106.0 mg/dL; TG Diff. [1]: -3.1 mg/dL
CCOc1cc(C=C(C)C(=O)OC2CCC34CC35CCC3(C)C(C(C)CCC(C)=C(C)C)CCC3(C)C5CCC4C2(C)C)ccc1O (stereo not drawn) [Example 140, cyclobranyl ester of 3-ethoxy-4-hydroxy-α-methylcinnamic acid] | 2.602 | 54.8 mg/dL | 2.02 nmol/mL | 98.0 mg/dL | 197.4 mg/dL | 52.4 mg/dL | -88% | 306% | -28.4% | -30% | -7.3% | -19.16 | +41.3 mg/dl | -0.80 nmol/mL | 105 ± 3.6 g | 147 ± 9.5 g | 194 ± 17.2 g | 246 ± 15.8 g | 273 ± 18.7 g | 261 ± 15.6 g | PL Diff. [1]: -42.1 mg/dL; TC % of diff. [1]: -35.8%; TC Diff. [1]: -109.9 mg/dL; TG Diff. [1]: -4.1 mg/dL; HDL-C rise compared with normal diet group [1]: remarkable rises
CCCOc1cc(C=C(C)C(=O)OC2CCC34CC35CCC3(C)C(C(C)CCC=C(C)C)CCC3(C)C5CCC4C2(C)C)ccc1O (stereo not drawn) [Example 146, cycloartenyl ester of 4-hydroxy-3-propoxy-α-methylcinnamic acid] | 7.479 | 23.4 mg/dL | 2.02 nmol/mL | 97.6 mg/dL | 198.4 mg/dL | 51.4 mg/dL | -65.6% | 73.3% | -28.4% | -30.3% | -9% | -14.28 | +9.9 mg/dl | -0.80 nmol/mL | 106 ± 5.9 g | 149 ± 11.0 g | 193 ± 17.5 g | 243 ± 15.8 g | 271 ± 20.2 g | 258 ± 19.1 g | PL Diff. [1]: -42.5 mg/dL; TC % of diff. [1]: -38.1%; TC Diff. [1]: -108.9 mg/dL; TG Diff. [1]: -5.1 mg/dL
COc1cc(C(=O)OC2CCC34CC35CCC3(C)C(C(C)CCC=C(C)C)CCC3(C)C5CCC4C2(C)C)ccc1N (centres unmarked) [Example 167, cycloartenyl ester of 4-amino-3-methoxy benzoic acid] | 2.405 | 79.6 mg/dL | 2.28 nmol/mL | 126.4 mg/dL | 271.0 mg/dL | 67.1 mg/dL | – | – | – | – | – | – | – | – | 105 ± 3.4 g | 143 ± 10.4 g | 191 ± 18.4 g | 241 ± 21.7 g | 272 ± 20.8 g | 259 ± 20.6 g | HDL-C rise compared with normal diet group [1]: remarkable rises
